Experimental data from patent US20150133411A1, “COMPOUNDS WITH TRPV4 ACTIVITY, COMPOSITIONS AND ASSOCIATED METHODS THEREOF” (The University of Utah Research Foundation, priority 2012, published 2015).

Experiments:
[1] = test system: retinal neurons (RGCs) and glia (Müller cells); experiment: Hypotonic stimuli: cell swelling (change in cell area) and [Ca++]i; type: cell-based
Description: FIG. 18A illustrates the effect of hypotonic stimuli on cell swelling as measured by change in cell area. Hypotonic stimuli were generated by replacing extracellular sodium levels to lower osmolarity from 300 mOsm to 190 mOsm.

[2] = target: TRPV4 (Mus musculus, UniProt Q9EPK8); experiment: AGB cation influx into retinal cells (anti-AGB antibody); type: cell-based; parameters: these two cell types express TRPV4 channels in the mouse retina; from tissue; host or cells: mouse retina (retinal ganglion cells and Müller glial cells); conditions: mouse retina
Experimental: FIG. 16 illustrates the effect of the TRPV4 agonist GSK on cation influx into mouse retinal cells of the mouse retina. The influx was determined using the anti-AGB antibody, as described by Marc R E (J Comp Neurol 407(1): 47-64, 1999). AGB is a membrane permeant cation that can flow through most known cation channels. Using an anti-AGB antibody, it can be determined where the cation flux occurs and, therefore, which cells are activated.

[3] = test system: retinal ganglion cells; experiment: RGC density (TuJ-1+, CFP+) in retinal wholemounts of MB-injected mice; type: in vivo, mouse
Experimental: FIG. 2 confirms that the mouse model for glaucoma causes RGC degeneration. Specifically, microbeads (MBs) were injected into the anterior chamber of a mouse eye. The MBs increase intraocular IOP above 15 mm Hg by blocking outflow of the aqueous humor within the anterior chamber of the eye. MBs were reinjected as needed to maintain a high IOP, typically one injection every two weeks. Contralateral eyes were injected intraocularly with the vehicle PBS (phosphate buffered saline) as controls. […] IOP levels were measured at least twice weekly before and after intraocular injections. After injections, mice recovered for 48 hours before IOP measurements resumed. Following 4 or 8 weeks of IOP elevation, mice were intracardially perfused with 4% paraformaldehyde in 1× PBS to fix the retinas. Retinas were then removed and processed for immunohistochemistry (IHC). Whole retinas were rinsed with 1× PBS three times at room temperature then incubated in blocking buffer (1× PBS+1% BSA). […] The density of RGCs was imaged with a confocal microscope (Zeiss LSM 510) and quantified by counting NeuN-, CFP- and/or Tuj-1-labeled somata in the RGC layer of the retinal wholemount preparation. […]
RGD density was quantified in retinas isolated from TuJ-1^+ mice and transgenic Thy1-CRP^+ transgenic mice that had been injected with either MBs or vehicle (PBS) then dosed with either compound 1 or vehicle (PBS). […] TuJ-1 was quantified by immunohistochemistry using a Tuj-1-specific antibody conjugated to a fluorescent Alexa 488 or Alexa 594 secondary antibody. […] For fluorescence immunocytochemistry, retinal wholemounts were washed in PBS, then placed for 30 min. to 1 hour in blocking solution (10 ml PBS, 30 μL Triton-X 100, 100 mg bovine serum albumin, 100 μL 10% w/v Na azide solution) in OCT (Ted Pella, Redding, Pa.). […]

TRPV4, sequence (Q9EPK8 whole entry): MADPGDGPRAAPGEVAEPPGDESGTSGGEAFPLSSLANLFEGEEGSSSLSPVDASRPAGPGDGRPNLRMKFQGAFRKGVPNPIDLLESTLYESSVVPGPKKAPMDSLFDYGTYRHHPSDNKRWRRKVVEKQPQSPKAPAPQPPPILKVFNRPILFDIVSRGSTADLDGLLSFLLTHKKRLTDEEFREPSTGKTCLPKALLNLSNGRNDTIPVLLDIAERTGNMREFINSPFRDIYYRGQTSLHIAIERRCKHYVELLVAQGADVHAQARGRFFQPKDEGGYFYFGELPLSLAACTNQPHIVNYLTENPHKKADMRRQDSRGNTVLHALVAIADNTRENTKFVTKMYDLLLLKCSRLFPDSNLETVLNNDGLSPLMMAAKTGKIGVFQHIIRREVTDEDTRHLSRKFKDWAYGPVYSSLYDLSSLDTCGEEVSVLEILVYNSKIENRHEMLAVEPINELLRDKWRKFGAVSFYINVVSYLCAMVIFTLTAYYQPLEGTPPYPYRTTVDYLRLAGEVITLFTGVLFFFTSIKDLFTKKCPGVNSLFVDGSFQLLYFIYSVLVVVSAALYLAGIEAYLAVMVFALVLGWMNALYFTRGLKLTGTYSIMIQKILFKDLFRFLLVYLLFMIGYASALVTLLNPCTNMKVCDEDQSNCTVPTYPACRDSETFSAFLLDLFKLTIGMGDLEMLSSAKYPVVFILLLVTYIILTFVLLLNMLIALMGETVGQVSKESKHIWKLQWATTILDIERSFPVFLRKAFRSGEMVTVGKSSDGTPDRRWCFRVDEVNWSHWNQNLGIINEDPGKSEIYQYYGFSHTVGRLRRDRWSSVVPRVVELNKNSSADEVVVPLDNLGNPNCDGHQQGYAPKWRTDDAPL

## Cc1c(C(=O)Nc2cccc(C(F)(F)F)c2)cc(-c2ccccc2)n1CCCN1CCOCC1 [Compound 1, N-(3-(trifluoromethyl)phenyl)-2-methyl-1-(3-morpholinopropyl)-5-phenyl-1H-pyrrole-3-carboxamide]
[1]; FIG. 18B
  hypotonic stimuli-induced increase in [Ca++]i: inhibited
[1]; hypotonic stimuli, 300 mOsm to 190 mOsm
  cell swelling (change in cell area): prevented hypotonic stimuli-mediated cell swelling to the same extent as BAPTA-AM
[2]
  effect on GSK-induced AGB cation influx: strongly antagonized
[3]; MB-injected mice
  TuJ-1+ cells in alpha, beta and omega regions: rescues RGCs across all regions of the retina
[3]; MB-injected mice, 8 weeks of increased IOP
  density of RGCs (TuJ-1+ and Thy1:CFP+ cells): RGC loss was rescued
[3]; Thy1-CFP transgenic mice, MB-injected
  CFP+ cells in alpha, beta and omega regions: rescues RGCs across all regions of the retina
